Experimental data: ChEMBL document CHEMBL1135343, “Glutathione-like tripeptides as inhibitors of glutathionylspermidine synthetase. Part 2: substitution of the glycine part” (Bioorg Med Chem Lett, 2002)
Several values for one entry are separate records, joined by “and”; a condition that tells them apart may be missing. Equal entries are not always repeated. Numbered stars: 1 amine (or outer) side, 2 acyl side, 3 side chain; on linkers, the order of the positions; unused ones are H or OH. Square brackets hold non-standard residues; d marks the D form. Peptide text beside a SMILES is read from it. γGlu = O=C(O)[C@H](CCC(=O)[*:2])N[*:1]; Orn = NCCC[C@H](N)C(=O)O; Dab = NCC[C@H](N)C(=O)O; Nva = CCC[C@H](N)C(=O)O; Dap = NC[C@H](N)C(=O)O

How the values were obtained:
[1] = biological target: T1, Glutathionylspermidine synthase (Crithidia fasciculata) (UniProt P90518); experiment: (§1) Tested against glutathionylspermidine synthetase (GspS) in Crithidia fasciculata; set-up: concentration or dose not given beside the values; conditions: concentration not given here
T1 sequence (whole entry): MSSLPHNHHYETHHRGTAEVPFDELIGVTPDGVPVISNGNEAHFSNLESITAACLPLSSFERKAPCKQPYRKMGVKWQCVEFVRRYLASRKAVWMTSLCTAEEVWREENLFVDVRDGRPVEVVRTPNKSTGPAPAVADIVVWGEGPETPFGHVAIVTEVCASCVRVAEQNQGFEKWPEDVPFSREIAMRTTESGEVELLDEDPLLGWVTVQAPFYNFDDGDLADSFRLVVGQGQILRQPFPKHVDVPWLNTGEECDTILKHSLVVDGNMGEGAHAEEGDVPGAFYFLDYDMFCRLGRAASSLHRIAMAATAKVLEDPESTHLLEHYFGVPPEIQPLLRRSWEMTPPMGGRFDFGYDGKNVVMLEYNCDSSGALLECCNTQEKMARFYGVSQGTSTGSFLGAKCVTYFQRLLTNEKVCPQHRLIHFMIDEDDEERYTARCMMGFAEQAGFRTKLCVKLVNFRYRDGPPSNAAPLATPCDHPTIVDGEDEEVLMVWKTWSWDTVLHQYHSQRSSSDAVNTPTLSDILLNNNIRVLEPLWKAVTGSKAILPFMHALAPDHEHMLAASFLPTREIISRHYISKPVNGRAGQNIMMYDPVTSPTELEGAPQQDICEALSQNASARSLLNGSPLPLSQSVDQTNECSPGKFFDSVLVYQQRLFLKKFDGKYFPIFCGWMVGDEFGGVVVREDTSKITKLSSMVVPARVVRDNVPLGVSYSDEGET

[2] = biological target: T2, Glutathionylspermidine synthase (Crithidia fasciculata, UniProt P90518); experiment: as §1
T2 sequence (P90518 whole entry): T1 sequence (whole entry)

[3] = biological target: T2, Glutathionylspermidine synthase; experiment: Inhibitory constant against glutathionylspermidine synthetase (GspS) in Crithidia fasciculata

| Structure (SMILES) | inhibition [1] [%] | IC50 [2] [µM] | Ki [3] |
| --- | --- | --- | --- |
| CC(C)C[C@H](NC(=O)CC[C@H](N)C(=O)O)C(=O)N[C@@H](CCCCNCCCCN)C(=O)O | 94 | 27.9 | 32 µM and 86 µM |
| CC(C)C[C@H](NC(=O)CC[C@H](N)C(=O)O)C(=O)N[C@@H](CCCN)C(=O)O (γGlu-Leu-[Orn]-OH) | 95 | 10.3 | 10 µM and 39 µM |
| CC(C)C[C@H](NC(=O)[C@H](CC(C)C)NC(=O)CC[C@H](N)C(=O)O)C(=O)O | 59 | 365 | – |
| CC(C)C[C@H](NC(=O)CC[C@H](N)C(=O)O)C(=O)NCC(=O)O (γGlu-Leu-Gly-OH) | 0 | – | – |
| CC(C)C[C@H](NC(=O)CC[C@H](N)C(=O)O)C(=O)N[C@@H](CCCCNCCCN)C(=O)O | 93 | 23 | 33 µM and 59 µM |
| CC(C)C[C@H](NC(=O)CC[C@H](N)C(=O)O)C(=O)N[C@@H](CCCCN)C(=O)O (γGlu-Leu-Lys-OH) | 93 | 18 | 27 µM and 48 µM |
| CC(C)C[C@H](NC(=O)CC[C@H](N)C(=O)O)C(=O)N[C@@H](CCN)C(=O)O (γGlu-Leu-[Dab]-OH) | 95 | 13.7 | 10.4 µM and 24 µM |
| CCCC[C@H](NC(=O)[C@H](CC(C)C)NC(=O)CC[C@H](N)C(=O)O)C(=O)O | 53 | – | – |
| CC(C)C[C@H](NC(=O)CC[C@H](N)C(=O)O)C(=O)N[C@@H](CCCN=C(N)N)C(=O)O | 95 | 9.4 | 6.4 µM and 17 µM |
| CC(C)C[C@H](NC(=O)CC[C@H](N)C(=O)O)C(=O)N[C@@H](CN)C(=O)O (γGlu-Leu-[Dap]-OH) | 97 | 9.1 | 7.2 µM and 21 µM |
| CC(C)C[C@H](NC(=O)CC[C@H](N)C(=O)O)C(=O)N[C@@H](CC(N)=O)C(=O)O (γGlu-Leu-Asn-OH) | 68 | 142 | – |
| CC(C)C[C@H](NC(=O)CC[C@H](N)C(=O)O)C(=O)N[C@@H](CCC(=O)O)C(=O)O (γGlu-Leu-Glu-OH) | 60 | 227 | – |
| CC(C)C[C@H](NC(=O)CC[C@H](N)C(=O)O)C(=O)N[C@@H](CC(=O)O)C(=O)O (γGlu-Leu-Asp-OH) | 69 | 156 | – |
| CC(C)C[C@H](NC(=O)CC[C@H](NC(=O)OC(C)(C)C)C(=O)OC(C)(C)C)C(=O)N[C@@H](CCCCNCCCNC(=O)OC(C)(C)C)C(=O)O | 62 | 157 | – |
| CC(C)C[C@H](NC(=O)CC[C@H](N)C(=O)O)C(=O)N[C@@H](CO)C(=O)O (γGlu-Leu-Ser-OH) | 94 | 11.7 | 14 µM and 25 µM |
| CCC[C@H](NC(=O)[C@H](CC(C)C)NC(=O)CC[C@H](N)C(=O)O)C(=O)O (γGlu-Leu-[Nva]-OH) | 70 | 145 | – |
| CC(C)C[C@H](NC(=O)CC[C@H](N)C(=O)O)C(=O)N[C@@H](C)C(=O)O (γGlu-Leu-Ala-OH) | 87 | 90 | – |
